According to patent US7241861B2, “High density lipoprotein-reactive peptides” (Japan Immunoresearch Laboratories Co., Ltd., priority 2001, dated 2007):

Experiments:
RAW264 cells = assay: Cholesterol efflux test in RAW264 cells loaded with acetylated LDL; type: cell-based, mouse; conditions: foam with acetylated LDL; peptide 20, 2.0 or 0.2 μg/mL, 24 hours; supernatant cholesterol (FIG. 4)
Procedure: The aforementioned peptides were examined with regard to cholesterol efflux effect from RAW264 cells (a model of atherosclerosis).
Specifically, RAW264 cells (mouse monocytic leukemia cell strain) were added to DMEM medium that had been supplemented with 10% FBS, to thereby prepare a specimen having a concentration of 4×10^5 cells/mL. An aliquot of the specimen (1 mL) was added to each well of a 12-well plate, followed by culture for two days in a CO2 incubator (37° C.). The medium in each well was removed, and the cells in the well were washed once with 1 mL of DMEM containing 0.2% BSA and 20 mM glutamine (hereinafter referred to as “DMEM”). Subsequently, a solution of acetylated LDL in DMEM (40 μg/mL, 1 mL) was added to each well, followed by culture for 24 hours in a CO2 incubator (37° C.), whereby acetylated LDL entered into the cells. The cells were washed twice with PBS supplemented with 0.2% BSA. Thereafter, a solution of dibutyl cAMP in DMEM (0.3 mM, 1 mL) was added to each well, followed by incubation for 2 hours in a CO2 incubator (37° C.).
The test peptide (20 μL) was added to each well so as to attain a final concentration of 20, 2.0, or 0.2 μg/mL, followed by culture for 24 hours in a CO2 incubator (37° C.).
After 24 hours, the supernatant of each well was collected in a microtube, and the microtube was centrifuged for five minutes at 10,000 rpm. The cholesterol level of the supernatant was measured by means of the autoanalyzer described above.
Each test peptide was dissolved in DMSO (5 mg/mL), and the thus-formed solution was diluted with DMEM so as to attain a concentration of 1 mg/mL. Subsequently, the resultant solution was diluted 10-fold or 100-fold with DMEM, to thereby prepare a test sample. Moreover, in order to prepare a control sample, only DMSO was diluted with DMEM so as to attain a final concentration of 0.4, 0.04, or 0.004%; and in order to prepare a positive control sample, delipid HDL was diluted with DMEM so as to attain a concentration of 2.5, 5.0, or 10 μg/mL.

HDL cholesterol = assay: Reactivity with HDL: HDL sample reacted with peptide-bound affinity gel, analysis of unbound fraction; type: binding, Human; conditions: for reduction of total cholesterol level of HDL: Example 5, total cholesterol level of applied HDL sample 12.7 mg/dl
Procedure: The peptide obtained in (1) above (B100FL, 0.1 mg) was added to affinity gel (25 μL) to which an anti-apo B-100 monoclonal antibody (JI-H) had been immobilized, whereby a B100FL-bound affinity gel was prepared. A control gel was prepared by treating gel with PBS (not containing B100FL) in a manner similar to the above.
Human plasma (1 mL) was added to affinity gel (2 mL) to which an anti-apo A-I monoclonal antibody had been immobilized, to thereby cause HDL to be specifically bound to the gel. The bound HDL was eluted with 3M sodium thiocyanate, and the buffer of the thus-obtained eluent was changed to PBS through use of a column for desalting, to thereby prepare an HDL sample.
The aforementioned anti-apo A-I monoclonal antibody immobilized affinity gel and anti-apo B-100 monoclonal antibody (JI-H) immobilized affinity gel were prepared in accordance with a conventional method (Japanese Patent Publication (kokoku) No. 7-104351).
The HDL sample (containing 20 μg of apo A-I) was reacted with the B100FL-bound affinity gel for 30 minutes at room temperature. Subsequently, the reaction mixture was left to stand for 15 minutes to thereby cause the gel to precipitate, to thereby remove the gel from the reaction mixture.
Total cholesterol level: Total cholesterol level was determined with a reagent for measuring cholesterol level (L-TCII, Kyowa Medex Co., Ltd.) by means of an autoanalyzer (TBA20R; Toshiba).
Lipoprotein analysis: Lipoprotein was analyzed through HPLC of a lipoprotein analysis system (Lipopropax XL, eluent: TSK eluent LP-1, 1 mL/min., sample volume: 100 μL; Tosoh) by monitoring colors produced by cholesterol.
Protein concentration: Each protein concentration was determined by measuring absorbance (OD280); or through the Lowry method in which each sample (which had been delipidized with ethanol-ether) was subjected to color reaction.
Protein analysis: Protein was analyzed by SDS-gel electrophoresis. Specifically, each sample was subjected to delipidizing treatment and solubilized with 1% SDS, followed by treatment with a buffer (2% SDS/10% glycerol/0.005% BPB/20% 2-mercaptoethanol), to thereby prepare a sample for electrophoresis. The resultant sample was electrophoresed in a 4-20% gradient gel in accordance with a conventional method.
In a manner similar to that described in Example 1 (3), reactivity of PS509 (synthesized in Example 2) with HDL was examined (as a test peptide, B-100FL or PS509 was employed, and the total cholesterol level of the applied HDL sample was 12.7 mg/dl).

[1] = tested on: quail arteriosclerosis model; assay: Effect test by use of an arteriosclerosis model (high-cholesterol-fed quails, aortic arch histology); type: in vivo
Description: Cholesterol (Wako Pure Chemical Industries, Ltd.) and corn oil (Corn Germ Oil 100; Ajinomoto Co., Inc.) were incorporated into a commercially available feed (product of Natural Pet Foods, “Chicks and nestlings (Quail)”) so as to attain final concentrations of 2% and 15%, respectively, to thereby prepare a high-cholesterol feed.
Healthy quails were bred while being allowed to freely intake the high-cholesterol feed for eight weeks. From five weeks after the beginning of breeding, a solution of the test peptide (B-100FL) in saline (1.0 mg/mL) was administered to the brachial (wing) vein (200 μL; 200 μg/body) twice a week at the interval of two through three days. In a manner similar to that described above, only saline was administered to the quails of a control group.
After the quails had been bred for eight weeks, the head of each quail was cut for exsanguination, and an aorta sample was obtained. The aorta sample was immediately fixed in a fixing solution (10% formalin) for three days. Subsequently, a tissue specimen (a frozen section having a thickness of 4 μm) of the aortic arch (where arteriosclerosis foci are most likely to occur) was prepared. The tissue specimen was subjected to hematoxylin-and-eosin staining (routine staining), and to oil-red staining (fat staining), followed by examination under a microscope.

[2] = tested on: anti-apo B-100 monoclonal antibody (JI-H); assay: Reactivity with anti-apo B-100 monoclonal antibody (JI-H) by ELISA on peptide-coated plate; type: binding; conditions: OD450 vs immobilized peptide concentration (FIG. 1)
Description: (2) Reactivity with anti-apo b-100 Monoclonal Antibody (JI-H: J. Clin. Ligand Assay, 19 (3), 177 (1999))
The reactivity was confirmed through ELISA in accordance with a conventional method by using a plate coated with the peptide obtained above (B100FL) (see Japanese Patent Application Laid-Open (kokai) No. 4-104798).

[3] = 200 μg/body i.v. twice a week from week 5 to 8, aortic arch section

Substance: DFEVAEKINA FRAKVHEL IE R [P21]
- cholesterol efflux effect from RAW264 cells (RAW264 cells): not to exhibit the effect

Substance: EKINA FRAKVHEL IE R [PS508]
- cholesterol efflux effect from RAW264 cells (RAW264 cells): not to exhibit the effect

Substance: FERINDVLEHVKHFVINLIGDFEVAEKINA (FERINDVLEHVKHFVINLIGDFEVAEKINA) [PS509, Apo B-100 position 2,307–2,336]
- cholesterol efflux effect from RAW264 cells (RAW264 cells): strong cholesterol efflux effect
- reduction of total cholesterol level of HDL (HDL cholesterol): about 48 percentage points

Substance: LLDQLGTTIS FERIND (LLDQLGTTISFERIND) [PS507, Apo B-100 position 2,297–2,312]
- cholesterol efflux effect from RAW264 cells (RAW264 cells): not to exhibit the effect

Substance: LLDQLGTTISFERINDVLEHVKHF (LLDQLGTTISFERINDVLEHVKHF) [PS506, Apo B-100 position 2,297–2,320]
- cholesterol efflux effect from RAW264 cells (RAW264 cells): not to exhibit the effect

Substance: LLDQLGTTISFERINDVLEHVKHFVINLIG (LLDQLGTTISFERINDVLEHVKHFVINLIG) [PS505, Apo B-100 position 2,297–2,326]
- cholesterol efflux effect from RAW264 cells (RAW264 cells): strong cholesterol efflux effect

Substance: LLDQLGTTISFERINDVLEHVKHFVINLIGDFEVAEKINAFRAKVHEL IE R (LLDQLGTTISFERINDVLEHVKHFVINLIGDFEVAEKINAFRAKVHELIER) [P51, 51 amino acid residues, the 2,297th to the 2,347th amino acid residues of apo B-100]
- lipid accumulation in the internal tunica ([1]; 200 μg/body i.v. (wing vein) twice a week from week 5 to 8 of high-cholesterol feed, aortic arch section): a small amount of lipid accumulation was observed
- morphological disorder of the vessel internal tunica [1, 3]: no morphological disorder
- thickening of the internal tunica and lipid infiltration into the middle tunica [1, 3]: absent
- cholesterol efflux effect from RAW264 cells (RAW264 cells): strong cholesterol efflux effect
- reactivity with JI-H [2]: specific reactivity
- reduction of total cholesterol level of HDL (HDL cholesterol): about 72 percentage points
- peak attributed to cholesterol (HDL-C) in lipoprotein analysis (HDL cholesterol; FIG. 2, HDL sample treated with B100FL-bound gel): does not include a peak
- total cholesterol level relative to HDL sample treated with the control gel (HDL cholesterol; HDL sample treated with B100FL-bound gel vs control gel): about 1/15
- HDL-C (HDL cholesterol; HDL-cholesterol by lipoprotein analysis (HPLC) of fraction that did not bind to the B100FL gel): 243.2 Area
- interaction with cholesterol and cholesterol ester of HDL (HDL cholesterol; conclusion from cholesterol, lipoprotein and SDS-gel analysis): has an effect of effluxing cholesterol and cholesterol ester from apoprotein particles of HDL
- Cholesterol (total cholesterol level) (HDL cholesterol; fraction that did not bind to the B100FL gel, HDL sample containing 20 μg apo A-I, 30 min room temperature): 0.25 mg/dL
